Laboratory results published in publication PMC10598831 (JACS Au, 2023).

Tests used:
[1] = target: T1, GDI2 (Homo sapiens, UniProt P50395); assay: Biolayer interferometry; assay type: binding
T1 sequence (P50395 1-445): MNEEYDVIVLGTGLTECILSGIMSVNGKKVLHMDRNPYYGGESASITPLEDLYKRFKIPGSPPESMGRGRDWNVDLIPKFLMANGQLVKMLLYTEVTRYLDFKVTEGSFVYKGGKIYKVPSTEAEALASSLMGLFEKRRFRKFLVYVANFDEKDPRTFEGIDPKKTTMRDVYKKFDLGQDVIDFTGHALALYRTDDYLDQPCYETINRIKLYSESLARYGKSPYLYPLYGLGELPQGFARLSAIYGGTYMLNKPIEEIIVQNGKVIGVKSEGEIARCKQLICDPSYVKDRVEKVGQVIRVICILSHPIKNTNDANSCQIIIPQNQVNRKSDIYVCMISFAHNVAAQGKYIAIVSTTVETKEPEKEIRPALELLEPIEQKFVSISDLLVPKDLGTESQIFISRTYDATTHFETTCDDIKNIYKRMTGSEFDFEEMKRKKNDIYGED

[2] = target: T1, GDI2; assay: GDI2 degradation by Western blot, AsPC-1 cells; assay type: cell-based
[3] = target: T2, GDI1 (Homo sapiens, UniProt P31150); assay: GDI1 level by Western blot, AsPC-1 cells; assay type: cell-based; settings: up to 10 μM
T2 sequence (P31150 1-447): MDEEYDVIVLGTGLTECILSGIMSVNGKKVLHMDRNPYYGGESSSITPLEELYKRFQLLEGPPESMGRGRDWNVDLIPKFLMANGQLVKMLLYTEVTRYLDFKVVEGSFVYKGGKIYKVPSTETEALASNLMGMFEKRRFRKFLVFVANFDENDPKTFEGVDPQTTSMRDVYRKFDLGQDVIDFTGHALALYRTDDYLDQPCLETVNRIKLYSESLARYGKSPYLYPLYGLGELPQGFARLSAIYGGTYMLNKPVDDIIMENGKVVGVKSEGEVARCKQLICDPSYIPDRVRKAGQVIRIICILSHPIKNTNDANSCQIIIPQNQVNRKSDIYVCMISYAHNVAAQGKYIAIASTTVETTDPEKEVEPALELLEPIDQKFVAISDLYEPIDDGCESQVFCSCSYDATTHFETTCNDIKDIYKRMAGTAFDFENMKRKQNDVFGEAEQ

[4] = system: AsPC-1 xenograft; assay: AsPC-1 pancreatic carcinoma xenograft model; assay type: in vivo, mouse
[5] = system: PDAC PDX tumors; assay: Pancreatic adenocarcinoma PDX model; assay type: in vivo, mouse

Cc1cc(C)cc(COc2cc3c(cc2OCc2cc(C)cc(C)c2)[C@H]2C[C@](O)(Cc4cn(CCOCCOCCOCCNC(=O)[C@@H](CC(C)C)NC(=O)[C@@H](O)[C@H](N)Cc5ccccc5)nn4)C[C@H](C)N2CC3)c1 [Compound 21]
Kd [1]: 23.9 µM | Dmax ([2]; ASPC1, read-out: GDI2 Dmax): 84.2% | GDI2 depleted ([2]; AsPC-1 cells, after 9 h of treatment): > 70% | DC50 ([2]; read-out: GDI2 DC50, AsPC-1 cells, 0.63–10 μM, 24 h, n = 3): 1480 nM | Effect on GDI1 protein level [3]: without affecting the GDI1 protein level | GDI2 not restored in tumor tissue ([4]; 15 mg/kg ip., 72 h post final injection, Western blot): more than 90% | Toxicity (body weight, histopathology of major organs) ([4]; 18 days of treatment): No significant signs of toxicity | Tumor growth vs vehicle ([4]; (+)-37 25 or 40 mg/kg ip., 21 15 mg/kg ip., every 3 days, 18 days): significantly attenuated tumor growth | Toxicity ([5]; 18 days of treatment): without significant toxicity | PDAC tumor growth ([5]; (+)-37 40 mg/kg ip., 21 15 mg/kg ip., every 3 days, 18 days): successfully suppressed PDAC tumor growth
